From paper PMC13065029 (PLOS One, 2026)
Like-named read-outs stand apart in the source and are kept apart here.

Tests used:
[1] = test system: Human alphaherpesvirus 1 (HSV-1); conditions: cited from earlier work
CHIKV nsP2^pro [2] = molecular target: T1, CHIKV nsP2^pro (Chikungunya virus, UniProt Q8JUX6); conditions: fluorometry; ref [18]; cited from earlier work
CHIKV nsP2^pro [3] = molecular target: T1, CHIKV nsP2^pro; conditions: FRET; ref [18]; read-out: IC₅₀; cited from earlier work
CHIKV nsP2^pro [4] = molecular target: T1, CHIKV nsP2^pro; conditions: ref [18]; cited from earlier work
Dengue virus = conditions: cited from earlier work
Yellow Fever virus = conditions: cited from earlier work
CHIKV nsP2^pro [5] = molecular target: T1, CHIKV nsP2^pro; conditions: MST; ref [67]; cited from earlier work
[6] = molecular target: T2, Chikungunya virus (CHIKV) nsP2 protease (Chikungunya virus); test: BLI; conditions: both partners purified
T2 chain: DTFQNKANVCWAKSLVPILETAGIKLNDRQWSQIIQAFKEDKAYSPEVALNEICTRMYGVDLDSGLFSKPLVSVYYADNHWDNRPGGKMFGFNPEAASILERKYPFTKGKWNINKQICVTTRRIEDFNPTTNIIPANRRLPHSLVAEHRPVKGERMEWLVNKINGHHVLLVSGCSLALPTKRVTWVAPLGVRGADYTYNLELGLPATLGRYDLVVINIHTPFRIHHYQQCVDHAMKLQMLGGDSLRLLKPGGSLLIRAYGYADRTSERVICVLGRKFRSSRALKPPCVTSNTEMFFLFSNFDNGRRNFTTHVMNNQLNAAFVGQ

For Mastoparan, the antiviral activity [1] is given as “antiviral activity”.

For COc1ccc([C@@H]2CC(=O)c3c(O)cc(O[C@@H]4O[C@H](CO[C@@H]5O[C@@H](C)[C@H](O)[C@@H](O)[C@H]5O)[C@@H](O)[C@H](O)[C@H]4O)cc3O2)cc1O [Hesperidin (HSD), Hesperidin], the Kd (CHIKV nsP2^pro [2]) is given as 40.7 ± 2 µM, the IC50 (CHIKV nsP2^pro [3]) is given as 7.1 ± 1.1 µM and the “Inhibition Mode” value (CHIKV nsP2^pro [4]) is given as “Noncompetitive”.

For Phospholipase A2, the antiviral activity (Dengue virus) is given as “antiviral activity” and the antiviral activity (Yellow Fever virus) is given as “antiviral activity”.

In the case of COc1ccc([C@@H]2CC(=O)c3c(O)cc(O)cc3O2)cc1O [Hesperetin (HST), Hesperetin], the Kd (CHIKV nsP2^pro [2]) is listed as 31.6 ± 2.5 µM, the IC50 (CHIKV nsP2^pro [3]) is listed as 2.5 ± 0.4 µM and the “Inhibition Mode” value (CHIKV nsP2^pro [4]) is listed as “Noncompetitive”.

For CC1=C(CO)C(=O)O[C@@H]([C@@H](C)[C@H]2CC[C@H]3[C@@H]4C[C@H]5O[C@]56[C@@H](O)C=CC(=O)[C@]6(C)[C@H]4CC[C@]23C)C1 [Withaferin A (WFA), Withaferin A], the Kd (CHIKV nsP2^pro [5]) is listed as 64 µM.

GILGKLWEGFKSIV (Stock of 10 mM in DMSO) [pantinin-1] showed a Kd [6] of 9.29 µM.
